# Results reported in the Kinase Knowledgebase extract (Sharma et al. 2016).
# Values joined by “and” are separate entries in the source; they are usually repeats but may differ in a detail not shown here. Equal values may be shown once.
# Legend:
# MAPK14 = MAPK14 (UniProt Q16539); assay: p38 alpha Kinase Inhibition Assay; settings: for inhibition: concentration not given here
# EGFR = EGFR (UniProt P00533)
# Sequence of EGFR (P00533 whole entry, looked up): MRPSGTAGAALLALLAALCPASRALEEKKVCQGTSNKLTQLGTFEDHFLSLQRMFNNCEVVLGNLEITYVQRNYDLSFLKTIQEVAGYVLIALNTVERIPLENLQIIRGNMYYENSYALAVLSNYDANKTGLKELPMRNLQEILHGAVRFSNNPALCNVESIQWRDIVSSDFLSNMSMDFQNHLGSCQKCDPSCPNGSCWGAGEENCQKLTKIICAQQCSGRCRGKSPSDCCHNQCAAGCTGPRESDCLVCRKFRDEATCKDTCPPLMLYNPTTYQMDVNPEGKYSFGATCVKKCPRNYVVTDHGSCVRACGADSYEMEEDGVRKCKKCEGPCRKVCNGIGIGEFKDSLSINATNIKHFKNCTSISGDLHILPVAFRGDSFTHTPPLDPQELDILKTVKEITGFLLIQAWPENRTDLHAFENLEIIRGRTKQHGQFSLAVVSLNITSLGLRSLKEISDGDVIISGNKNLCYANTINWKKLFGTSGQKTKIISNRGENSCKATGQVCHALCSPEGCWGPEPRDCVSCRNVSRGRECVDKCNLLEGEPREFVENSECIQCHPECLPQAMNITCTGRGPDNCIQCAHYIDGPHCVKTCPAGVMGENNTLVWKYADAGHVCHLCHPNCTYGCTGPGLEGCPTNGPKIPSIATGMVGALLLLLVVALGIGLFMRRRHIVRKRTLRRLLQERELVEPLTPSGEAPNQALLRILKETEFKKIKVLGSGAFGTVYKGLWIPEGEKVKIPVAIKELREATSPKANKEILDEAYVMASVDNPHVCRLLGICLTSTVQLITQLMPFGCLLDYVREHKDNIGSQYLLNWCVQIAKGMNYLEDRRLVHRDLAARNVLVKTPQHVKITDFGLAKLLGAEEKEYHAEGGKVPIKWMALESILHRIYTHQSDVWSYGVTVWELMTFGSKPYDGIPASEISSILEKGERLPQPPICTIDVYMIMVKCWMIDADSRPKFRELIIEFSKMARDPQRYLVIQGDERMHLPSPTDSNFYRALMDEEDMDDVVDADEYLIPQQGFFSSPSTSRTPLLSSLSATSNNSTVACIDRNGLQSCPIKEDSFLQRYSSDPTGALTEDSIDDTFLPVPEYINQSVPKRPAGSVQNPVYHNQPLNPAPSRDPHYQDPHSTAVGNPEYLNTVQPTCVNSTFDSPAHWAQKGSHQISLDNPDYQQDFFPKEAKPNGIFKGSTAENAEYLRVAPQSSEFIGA
# Sequence of MAPK14 (Q16539 whole entry, looked up): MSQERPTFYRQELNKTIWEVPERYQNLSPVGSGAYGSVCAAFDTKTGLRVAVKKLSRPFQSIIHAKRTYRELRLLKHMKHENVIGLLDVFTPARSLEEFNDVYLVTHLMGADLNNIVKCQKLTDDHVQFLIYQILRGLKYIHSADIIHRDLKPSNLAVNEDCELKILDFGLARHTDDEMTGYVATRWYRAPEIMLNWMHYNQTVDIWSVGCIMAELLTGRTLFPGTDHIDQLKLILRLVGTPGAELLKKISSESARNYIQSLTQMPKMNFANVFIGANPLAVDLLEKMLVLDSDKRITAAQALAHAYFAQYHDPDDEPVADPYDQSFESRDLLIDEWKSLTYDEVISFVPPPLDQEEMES
Compound,IC50 (MAPK14),inhibition (MAPK14) [%],IC50 (EGFR) [nM]
O=C(c1ccc2cc[nH]c2c1)N1CCN(Cc2ccccc2)CC1,4970 to 5520 nM,–,–
O=C(c1ccc2c(ccn2-c2ccncc2)c1)N1CCC(Cc2ccccc2)CC1,800 nM,–,–
CCNCCCn1ccc2cc(C(=O)N3CCC(Cc4ccccc4)CC3)c(Cl)cc21,199 nM,–,–
CCNCCCn1ccc2cc(C(=O)N3CCC(Cc4ccc(F)cc4)CC3)ccc21,354 nM,–,–
O=C(c1ccc2cc[nH]c2c1)N1CCC(Cc2ccc(F)cc2)C1 (configuration not stated),–,51,–
O=C(c1ccc2ccn(C(=O)c3ccncc3)c2c1)N1CCC(Cc2ccccc2)CC1,505 nM,–,–
O=C(c1ccc2cc[nH]c2c1)N1CCC(Cc2ccccc2)CC1,–,–,> 500000
O=C(c1ccc2[nH]ccc2c1)N1CCC(Cc2ccccc2)CC1,150 to 242 nM and 523 to 577 nM,–,> 500000
O=C(c1ccc2c(ccn2C(=O)c2ccncc2)c1)N1CCC(Cc2ccccc2)CC1,405 to 871 nM,–,–
O=C(c1ccc2nc[nH]c2c1)N1C2CCC1CC(Cc1ccccc1)C2 (configuration not stated),2150 nM,–,–
COc1cc2[nH]ccc2cc1C(=O)N1C2CCC1CC(Cc1ccccc1)C2 (configuration not stated),–,63,–
